Measured values as given in paper PMC8426237, “A first-in-human phase I study of TAS0728, an oral covalent binding inhibitor of HER2, in patients with advanced solid tumors with HER2 or HER3 aberrations” (Investigational New Drugs, 2021).

What was measured:
[1] = Plasma pharmacokinetics after single and multiple oral doses; format: in vivo, human
Method: Multiple blood samples were collected on day 1 of cycles 1 and 2 (i.e., pre-dose, post-dose at +0.5 h, +1 h, +1.5 h, +2 h, +3 h, +4 h, +6 h, +8 h, +12 h) for analysis of plasma PK after administration of single and multiple doses respectively; urine samples were collected 0–3 h prior to morning dose and 0–12 h post-morning dose on day 1 of cycle 1.
Continuous data were summarized with frequency, median, range, mean, standard deviation and standard error if relevant. Categorical data were presented as frequencies and percentages. 95% confidence intervals (CI) were calculated following the exact method. A p value <0.05 was considered statistically significant. Data were analyzed using the SAS® system software version 9.3 for Windows® (Statistical Analysis System, Cary, NC, USA). The PK data were analyzed using Phoenix WinNonlin (Version 6.4 or later, Certara L.P; Princeton New Jersey, United States). All analyses were descriptive and exploratory; no formal statistical testing was conducted.

HER2 = tested on: HER2; design: method as in PMID 30787176; details: cited from earlier work
[2] = tested on: advanced solid tumors with HER2 or HER3 aberrations; assay: Antitumor activity, objective tumor assessment by RECIST1.1; format: in vivo, human
Source text: Objective tumor assessments were made according to the revised response evaluation criteria in solid tumors [RECIST1.1] [8] from evaluation of magnetic resonance imaging (MRI)/computed tomography (CT) scans made at screening (baseline) and after every 2 cycles during the first 6 months of treatment with TAS0728, and after every 3 cycles of treatment thereafter.

[3] = tested on: HER2 overexpressed cancer cells; design: method as in PMID 30787176; details: cited from earlier work
[4] = Dose-limiting toxicities, 3 + 3 dose escalation, first cycle; format: in vivo, human; details: for Any DLTs / DLT: Grade ≥ 3 diarrhea only if lasting >48 h and unresponsive to intensive antidiarrheal medication: DLT-evaluable population; for Patients with DLT AEs: all treated population
Method: Based on preclinical toxicological studies and PK analysis, the starting dose of TAS0728 was 50 mg BID. Dose escalation followed a 3 + 3 dose-escalation scheme and planned to proceed using the following dose levels BID: 50 mg, 100 mg, 200 mg, 400 mg, 600 mg and 800 mg. TAS0728 was administered during a 21-day cycle.
If a DLT was identified at a particular dose level, de-escalation was made to an intermediate de-escalation dose level. […] The MTD was to be the dose level at which 0 of 6 or 1 of 6 patients experienced a DLT, with at least 2 patients experiencing DLTs at the next higher dose level. For the determination of the MTD, DLTs that occurred during the first cycle (i.e., first 21 days) of TAS0728 treatment were considered. Patients who experienced AEs were allowed two dose reductions during the study. TAS0728 treatment could be continued until disease progression, unacceptable toxicity, withdrawal of consent, or at the discretion of the investigator.

[5] = planned dose 50 mg, cycle 1, day 1, mean, n 3
[6] = planned dose 50 mg, cycle 1, day 1, n 3
[7] = planned dose 100 mg, cycle 1, day 1, mean, n 3
[8] = planned dose 100 mg, cycle 1, day 1, n 3
[9] = planned dose 100 mg, cycle 2, day 1, mean, n 2
[10] = planned dose 100 mg, cycle 2, day 1, mean, n 3
[11] = planned dose 100 mg, cycle 2, day 1, n 3
[12] = planned dose 150 mg, cycle 1, day 1, mean, n 5
[13] = planned dose 150 mg, cycle 1, day 1, mean, n 6
[14] = planned dose 150 mg, cycle 1, day 1, n 6
[15] = planned dose 150 mg, cycle 2, day 1, mean, n 2
[16] = planned dose 150 mg, cycle 2, day 1, n 2
[17] = planned dose 200 mg, cycle 1, day 1, mean, n 6
[18] = planned dose 200 mg, cycle 1, day 1, mean, n 7
[19] = planned dose 200 mg, cycle 1, day 1, n 7
[20] = planned dose 200 mg, cycle 2, day 1, mean, n 2
[21] = planned dose 200 mg, cycle 2, day 1, n 2

C=CC(=O)N1CCC[C@@H](n2nc(C(=O)Nc3ccc(CC(=O)N(C)C)c(C)c3C)c3c(N)ncnc32)C1 [TAS0728]
Accumulation of TAS0728 exposure ([1]; BID multiple-dose administration): No significant accumulation
t1/2 ([1]; cycle 1, day 1, all dose levels): approximately 2.0 h
AUC0–12 [1, 5]: 2437 ng·h/mL
AUCinf [1, 5]: 2470 ng·h/mL
AUClast [1, 5]: 2415 ng·h/mL
Cmax [1, 5]: 1162 ng/mL
t1/2 [1, 5]: 1.96 h
Tmax maximum [1, 6]: 1.58 h
Tmax median [1, 6]: 0.50 h
Tmax minimum [1, 6]: 0.50 h
AUC0–12 [1, 7]: 5669 ng·h/mL
AUCinf [1, 7]: 5765 ng·h/mL
AUClast [1, 7]: 5626 ng·h/mL
Cmax [1, 7]: 2039 ng/mL
t1/2 [1, 7]: 1.90 h
Tmax maximum [1, 8]: 3.05 h
Tmax median [1, 8]: 0.58 h
Tmax minimum [1, 8]: 0.53 h
AUC0–12 [1, 9]: 5475 ng·h/mL
R(AUC0–12), observed accumulation ratio of AUC0–12 [1, 9]: 0.87
t1/2 [1, 9]: 2.17 h
AUClast [1, 10]: 4276 ng·h/mL
Cmax [1, 10]: 1389 ng/mL
R (Cmax), observed accumulation ratio of Cmax [1, 10]: 0.56
Tmax maximum [1, 11]: 6.20 h
Tmax median [1, 11]: 3.03 h
Tmax minimum [1, 11]: 0.92 h
AUC0–12 [1, 12]: 12,946 hr*ng/mL
AUCinf [1, 12]: 13,158 hr*ng/mL
t1/2 [1, 12]: 1.91 h
AUClast [1, 13]: 19,523 hr*ng/mL
Cmax [1, 13]: 5402 ng/mL
Tmax maximum [1, 14]: 1.05 h
Tmax median [1, 14]: 0.59 h
Tmax minimum [1, 14]: 0.50 h
AUC0–12 [1, 15]: 14,782 hr*ng/mL
AUClast [1, 15]: 14,782 hr*ng/mL
Cmax [1, 15]: 3460 ng/mL
R (Cmax), observed accumulation ratio of Cmax [1, 15]: 0.91
R(AUC0–12), observed accumulation ratio of AUC0–12 [1, 15]: 1.61
t1/2 [1, 15]: 3.11 h
Tmax maximum [1, 16]: 1.58 h
Tmax median [1, 16]: 1.30 h
Tmax minimum [1, 16]: 1.02 h
AUC0–12 [1, 17]: 14,653 hr*ng/mL
AUCinf [1, 17]: 15,046 hr*ng/mL
t1/2 [1, 17]: 2.05 h
AUClast [1, 18]: 15,108 hr*ng/mL
Cmax [1, 18]: 5091 ng/mL
Tmax maximum [1, 19]: 3.92 h
Tmax median [1, 19]: 1.00 h
Tmax minimum [1, 19]: 0.45 h
AUC0–12 [1, 20]: 11,459 hr*ng/mL
AUClast [1, 20]: 11,248 hr*ng/mL
Cmax [1, 20]: 2565 ng/mL
R (Cmax), observed accumulation ratio of Cmax [1, 20]: 0.96
R(AUC0–12), observed accumulation ratio of AUC0–12 [1, 20]: 1.18
t1/2 [1, 20]: 3.13 h
Tmax maximum [1, 21]: 3.25 h
Tmax median [1, 21]: 1.88 h
Tmax minimum [1, 21]: 0.52 h
Specificity for HER2 over wild-type EGFR (HER2): high specificity for HER2 over wild-type EGFR
Inhibitory effect against HER2 and HER3 versus EGFR (HER2; nonclinical studies): much greater against HER2 and HER3 than against EGFR
Time on treatment before disease progression, patient with PR (BTC, HER2 amplification) ([2]; 200 mg BID, no dose adjustment): 136 days
Patients with disease control (best overall tumor response of PR or SD) ([2]; all dose levels): 10
Objective responses (PR) ([2]; of 19 treated patients, NSCLC with HER2 mutation at 50 mg BID, BTC with HER2 amplification at 200 mg BID): two
Inhibitory activity for overexpressed/amplified HER2 and mutated HER2 in cancer cells [3]: potent inhibitory activity
Antiproliferative activity against HER2 overexpressed cancer cells ([3]; in vitro and in vivo): antiproliferative activity
Any DLTs ([4]; 50 mg BID (N = 3)): 0 n, (%)
DLT: Grade ≥ 3 diarrhea only if lasting >48 h and unresponsive to intensive antidiarrheal medication ([4]; 50 mg BID (N = 3)): 0 n, (%)
Patients with DLT AEs ([4]; 50 mg BID (N = 3)): 0 n, (%)
Any DLTs ([4]; 100 mg BID (N = 3)): 0 n, (%)
DLT: Grade ≥ 3 diarrhea only if lasting >48 h and unresponsive to intensive antidiarrheal medication ([4]; 100 mg BID (N = 3)): 0 n, (%)
Patients with DLT AEs ([4]; 100 mg BID (N = 3)): 0 n, (%)
Any DLTs ([4]; 150 mg BID (N = 3)): 1 (33.3) n, (%)
DLT: Grade ≥ 3 diarrhea only if lasting >48 h and unresponsive to intensive antidiarrheal medication ([4]; 150 mg BID (N = 3)): 1 (33.3) n, (%)
Patients with DLT AEs ([4]; 150 mg BID (N = 6)): 1 (16.7) n, (%)
DLTs observed (Grade 3 diarrhea lasting >48 h, not responsive to antidiarrheal treatment) ([4]; 200 mg BID): two
Any DLTs ([4]; 200 mg BID (N = 6)): 2 (33.3) n, (%)
DLT: Grade ≥ 3 diarrhea only if lasting >48 h and unresponsive to intensive antidiarrheal medication ([4]; 200 mg BID (N = 6)): 2 (33.3) n, (%)
Patients with DLT AEs ([4]; 200 mg BID (N = 7)): 2 (28.6) n, (%)
Patients with DLT AEs ([4]; Overall (N = 19)): 3 (15.8) n, (%)
Any DLTs ([4]; Total (N = 15)): 3 (20.0) n, (%)
DLT: Grade ≥ 3 diarrhea only if lasting >48 h and unresponsive to intensive antidiarrheal medication ([4]; Total (N = 15)): 3 (20.0) n, (%)
